Measurements from patent US20210393785A1, “Nucleic acid nanocarrier drug and preparation method thereof” (BAI YAO ZHI DA (BEIJING) NANOBIO TECHNOLOGY CO., LTD., priority 2018, published 2021).
Values joined by “and” are separate entries in the source; they are usually repeats but may differ in a detail not shown here. Equal values may be shown once.

Experiments:
[1] = tested on: HepG2 cells; assay: Cytotoxicity in HepG-2 cells (CellTiter-Glo); type: cell-based, human; conditions: 96 hours
Protocol: 1) Harvesting cells in a logarithmic growth phase, taking a small amount and staining with trypan blue for counting to ensure that the cell viability reaches more than 80%;
(§1) 3) planting 90 μL/well of cell suspension into the 96-well plate, herein the number of cells per well in the plate is 2000;
4) placing the planted cell plate in the incubator at 37 DEG C. and incubating overnight under conditions of 5% CO2 and 95% humidity;
(§2) 5) performing 3.16-fold gradient dilution on the compound at 9 concentration points;
6) taking out the cell culture plate, and adding 10 μL/well of 10× concentration drug working solution to the corresponding wells of the cell culture plate, herein three replicate holes are made for each concentration, and the final drug action concentration is shown in Table 56 below;
(§3) 7) placing the cell culture plate in the incubator and continuously incubating for 96 hours;
8) placing the CellTiter-Glo reagent and the drug treatment cell culture plate at the room temperature and equilibrating for 30 minutes;
9) adding 50 μL of the CellTiter-Glo reagent to each well;
10) shaking in the orbital shaker for 2 minutes so that the cells are adequately lysed;
11) placing the cell culture plate at the room temperature and equilibrating for 10 minutes, reading a chemiluminescence value by using EnVision; and
12) data processing and analysis.
GraphPad Prism 5.0 software is used to process data graphically. Nonlinear S-curve regression is used to fit the data to obtain a dosage-effect curve, and an IC50 value is calculated from this.
Cell survival rate (%)=(Lumdrug to be tested−Lummedium control)/(Lumcell control−Lummedium control)×100%.
Lumcell control-Lummedium control is set to 100%, and a LumMedium control value is set to 0%.

[2] = tested on: LN-229 cells; assay: Cytotoxicity in LN-229 cells; type: cell-based; conditions: 96 hours
Protocol: 2) adjusting the cell density to 2.22×10^4/mL with a growth medium;
6) taking out the cell culture plate, and adding 10 μL/well of 10× concentration drug working solution to the corresponding wells of the cell culture plate, herein three replicate holes are made for each concentration, and the final drug action concentration is shown in Table 46 below;
8) placing the CellTiter 96® AQueous One Solution reagent at the room temperature and thawing for 90 minutes or thawing in a water bath at 37 DEG C., and then equilibrating at the room temperature for 30 minutes;
9) adding 50 μL/well of the CellTiter 96® AQueous One Solution reagent to the cell culture plate; […]
11) using the microplate reader to read a OD490 value of each well in the cell plate; and […]

[3] = tested on: Hela cells; assay: Cytotoxicity in Hela cells (CellTiter 96 AQueous One, OD490); type: cell-based; conditions: Homo sapiens, 72 hours
Protocol: (§4) 1) Harvesting cells in a logarithmic growth phase, taking a small amount and staining with trypan blue for counting to ensure that the cell viability reaches more than 98%;
3) planting 90 μL/well of cell suspension into the 96-well plate, herein the number of cells per well in the plate is 5000;
(§5) 4) placing the planted cell plate in the incubator at 37 DEG C. and incubating overnight;
as §2
6) taking out the cell culture plate, and adding 10 μL/well of 10× concentration drug working solution to the corresponding wells of the cell culture plate, herein three replicate holes are made for each concentration, and the final drug action concentration is shown in Table 66 below;
7) placing the cell culture plate in the incubator and continuously incubating for 72 hours;
8) placing the CellTiter 96® AQueous One Solution reagent at the room temperature and thawing for 90 minutes or thawing in a water bath at 37 DEG C., placing at the room temperature and equilibrating for 30 minutes; […]
(§6) 11) using a microplate reader to read a OD490 value of each well in the cell plate; and […]
(§7) GraphPad Prism 5.0 software is used to process data graphically. […] A calculation formula of the survival rate is as follows, the IC50 may be automatically calculated in GraphPad Prism 5.0. […]

[4] = tested on: SGC-7901 cells; assay: Cytotoxicity in SGC-7901 cells (CellTiter 96 AQueous One, OD490); type: cell-based, human; conditions: 96 hours
Protocol: as §4, §1, §5, §2
6) taking out the cell culture plate, and adding 10 μL/well of 10× concentration drug working solution to the corresponding wells of the cell culture plate, herein three replicate holes are made for each concentration, and the final drug action concentration is shown in Table 76 below;
as §3
8) placing the CellTiter 96® AQueous One Solution reagent at the room temperature and thawing for 90 minutes or thawing in a water bath at 37 DEG C., and placing at the room temperature and equilibrating for 30 minutes; […]
as §6, §7

[5] = tested on: HepG2 cells; assay: CCK8 toxicity of DNA nanoparticles and carrier drugs to HepG2; type: cell-based; conditions: Homo sapiens, 72 hours
Protocol: A CCK8 method is used to detect the toxicity of DNA nanoparticles and carrier drugs to HepG2.
1. HepG2 cells in a logarithmic growth phase are taken, trypan blue is used for staining and the cell viability is counted to be 98.3%, plating is performed with 5000 Cell/well, a volume is 100 μL/well, 8 96-well plates are paved with 57 wells per plate, and it is incubated overnight at 37 DEG C.
2. A sample to be tested is diluted according to the following table and added: the original culture medium is removed and 100 μL of a culture medium of the sample to be tested with the different concentration is added, and there are 3 replicate wells in each group.
In the present embodiment, the loaded drug and the blank carrier are firstly prepared into 100 μM of stock solution by using the PBS, and then diluted with the complete culture medium (biotin-free DMEM). The original drug doxorubicin is firstly prepared into 100 μM of stock solution by the DMSO, and then diluted with the complete culture medium (biotin-free DMEM). The DMSO is directly diluted with the complete medium (biotin-free DMEM).
3. […]
6. A microplate reader is used to measure an absorbance at 450 nm.
7. Calculation: cell viability (%)=(OD experimental group-OD blank group)×100%/(OD control group-OD blank group), IC50 is calculated by Graph Pad Prism 5.0.

[6] = Particle size measurement (DLS hydrodynamic size); type: physicochemical
Text: 1. Preparing a potential sample (conventional-sequence DNA self-assembly product D-7) and putting into a sample pool, opening a sample pool cover of an instrument, and placing the instrument; […]
4. clicking Ok to complete the settings, while a measurement dialog box appears, clicking Start to start, a DLS measurement value result of a hydrodynamic size of the self-assembly product D-7 is as follows: […]

Question: What does the source list for N.N.[Cl][Pt][Cl] [Cisplatin]?
Answer: IC50 [1]: 3.99 µM; Inhibition rate of cell proliferation at highest concentration itself ([1]; highest concentration of each sample (Table 56: 100 μM, DNAh-Bio-Cy5 4.9 μM)): 99.36%; IC50 [2]: 12.5 µM

Question: For C[C@H]1[C@@H](O)O[C@@H]2O[C@@]3(C)CC[C@H]4[C@H](C)CC[C@@H]1[C@@]24OO3 [DHA (dihydroartemisinin), Dihydroartemisinin], which IC50 ([2]; Homo sapiens) is on record?
Answer: 20.2 µM

Question: With O=c1cc(-c2ccccc2)oc2ccccc12 [Flavone] as the molecule, how does the IC50 [3] read?
Answer: 12.6 µM

Question: For O=C1[O][Pt]2([NH][C@@H]3CCCC[C@H]3[NH]2)[O]C1=O [Oxaliplatin], which IC50 [4] is on record?
Answer: 55.8 µM

Question: Which IC50 ([1]; Homo sapiens) does the source give for CC[C@]1(O)C[C@H]2CN(CCc3c([nH]c4ccccc34)[C@@](C(=O)OC)(c3cc4c(cc3OC)N(C=O)[C@H]3[C@@](O)(C(=O)OC)[C@H](OC(C)=O)[C@]5(CC)C=CCN6CC[C@]43[C@@H]65)C2)C1 [Vincristine] here?
Answer: 1.68 µM

Question: And the inhibition at 100 µM ([1]; Homo sapiens, highest concentration of each sample (Table 56: 100 μM, DNAh-Bio-Cy5 4.9 μM), read-out: Inhibition rate of cell proliferation at highest concentration itself)?
Answer: 70.7%

Question: With COc1cccc2c1C(=O)c1c(O)c3c(c(O)c1C2=O)C[C@@](O)(C(=O)CO)C[C@@H]3O[C@H]1C[C@H](N)[C@H](O)[C@H](C)O1 [doxorubicin] as the molecule, how does the IC50 [5] read?
Answer: 0.273 µM

B1: D-7: conventional-sequence DNA nanoparticles, SEQ ID NO:117-119, no target head, thio modification (nucleic acid)
chain 1: CGCGCGCCCACGAGCGTTGCGGGCGCCGC
chain 2: GCGGCGCCCGCTTCGGCGGCAGGCGGC
chain 3: GCCGCCAGCCGCCCATAGCCGTGGGCGCGCG
modifications: DNA, backbone not given here; phosphorothioate (thio) modified DNA nanoparticle, further chemistry not fully specified
Question: With B1 as the molecule, how does the “Particle size Z-Ave, Experiment result” value ([6]; result over the 3 detections) read?
Answer: 12.33 d · nm (±1.57 d · nm)

Question: And the “Particle size Z-Ave” value ([6]; single detections 1-3, DLS hydrodynamic size)?
Answer: 10.76 nm·days and 13.9 nm·days and 10.36 nm·days
